{"source": "paper PMC7044277", "about": "(Nature Communications, 2020)", "type_in_all_cases": "cell-based", "key": {"DRD2 S1935.42G": {"molecular_target": "T1, DRD2 S1935.42G (Homo sapiens, UniProt P14416, S193G)", "T1 construct": "expressed in transfected cells; host or cells: HEK293T (ATCC CRL-11268)", "T1 sequence (P14416 whole entry S193G)": "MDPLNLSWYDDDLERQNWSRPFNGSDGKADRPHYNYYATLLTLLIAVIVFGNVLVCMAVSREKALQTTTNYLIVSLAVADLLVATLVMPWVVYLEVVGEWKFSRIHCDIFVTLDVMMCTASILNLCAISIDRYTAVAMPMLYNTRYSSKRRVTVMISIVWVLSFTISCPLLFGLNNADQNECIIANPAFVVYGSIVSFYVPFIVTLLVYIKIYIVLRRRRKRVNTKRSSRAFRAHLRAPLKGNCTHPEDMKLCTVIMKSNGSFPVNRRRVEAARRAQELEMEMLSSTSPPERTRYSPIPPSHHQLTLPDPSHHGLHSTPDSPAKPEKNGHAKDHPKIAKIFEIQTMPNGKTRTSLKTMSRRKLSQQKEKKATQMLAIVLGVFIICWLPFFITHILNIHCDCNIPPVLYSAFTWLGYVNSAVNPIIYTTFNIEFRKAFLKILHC", "test": "Gαi/o-mediated cAMP inhibition (GloSensor), mutant", "conditions": "DRD2 Ser5.42Gly; G-protein assay"}, "DRD2 S1975.46G": {"molecular_target": "T2, DRD2 S1975.46G (Homo sapiens, UniProt P14416, S197G)", "T2 construct": "expressed in transfected cells; host or cells: HEK293T (ATCC CRL-11268)", "T2 sequence (P14416 whole entry S197G)": "as the sequence (P14416 whole entry S193G) above, with G193S, S197G counted along it", "test": "Gαi/o-mediated cAMP inhibition (GloSensor), mutant", "conditions": "DRD2 Ser197^5.46Gly; G-protein assay"}, "DRD1": {"molecular_target": "DRD1 (Homo sapiens, UniProt P21728)", "sequence (P21728 whole entry)": "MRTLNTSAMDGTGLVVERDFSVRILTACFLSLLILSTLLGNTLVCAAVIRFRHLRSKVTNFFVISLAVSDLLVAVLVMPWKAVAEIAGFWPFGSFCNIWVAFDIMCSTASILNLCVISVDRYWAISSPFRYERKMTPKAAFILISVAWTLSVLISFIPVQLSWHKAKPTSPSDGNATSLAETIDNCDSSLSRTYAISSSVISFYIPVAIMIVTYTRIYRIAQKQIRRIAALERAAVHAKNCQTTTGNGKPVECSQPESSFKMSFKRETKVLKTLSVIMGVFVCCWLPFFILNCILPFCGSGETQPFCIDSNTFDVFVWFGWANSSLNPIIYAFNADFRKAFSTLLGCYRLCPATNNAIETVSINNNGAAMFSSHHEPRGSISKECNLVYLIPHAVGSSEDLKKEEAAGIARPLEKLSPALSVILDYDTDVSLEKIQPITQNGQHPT", "test": "β-arrestin2 recruitment (Tango)", "conditions": "agonist mode"}, "DRD5": {"molecular_target": "DRD5 (Homo sapiens, UniProt P21918)", "sequence (P21918 whole entry)": "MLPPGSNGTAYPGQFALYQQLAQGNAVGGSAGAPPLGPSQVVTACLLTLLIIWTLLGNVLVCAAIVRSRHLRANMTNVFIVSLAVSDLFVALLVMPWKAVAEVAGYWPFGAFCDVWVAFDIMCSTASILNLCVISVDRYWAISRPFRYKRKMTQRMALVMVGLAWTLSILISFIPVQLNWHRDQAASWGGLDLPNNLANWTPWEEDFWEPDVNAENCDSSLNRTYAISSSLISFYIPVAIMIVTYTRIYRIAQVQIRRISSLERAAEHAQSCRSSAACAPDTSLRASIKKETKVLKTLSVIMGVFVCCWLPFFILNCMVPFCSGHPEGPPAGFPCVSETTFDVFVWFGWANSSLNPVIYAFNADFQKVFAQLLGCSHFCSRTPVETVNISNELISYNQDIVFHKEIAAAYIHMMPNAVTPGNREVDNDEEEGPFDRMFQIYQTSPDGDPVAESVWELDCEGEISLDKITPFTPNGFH", "test": "β-arrestin2 recruitment (Tango)", "conditions": "Fig_S10e, single replicates"}, "5HT1D": {"molecular_target": "5HT1D (Homo sapiens, UniProt P28221)", "sequence (P28221 whole entry)": "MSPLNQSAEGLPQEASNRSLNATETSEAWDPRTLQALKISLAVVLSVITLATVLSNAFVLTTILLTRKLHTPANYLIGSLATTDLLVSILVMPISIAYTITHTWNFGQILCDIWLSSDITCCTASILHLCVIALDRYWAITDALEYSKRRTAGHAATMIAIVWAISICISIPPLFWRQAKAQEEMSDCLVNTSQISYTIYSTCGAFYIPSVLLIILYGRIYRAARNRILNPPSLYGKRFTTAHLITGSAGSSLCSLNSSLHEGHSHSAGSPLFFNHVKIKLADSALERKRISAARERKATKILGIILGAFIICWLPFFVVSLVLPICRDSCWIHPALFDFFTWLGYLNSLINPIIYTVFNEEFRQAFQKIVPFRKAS", "test": "β-arrestin2 recruitment (Tango)", "conditions": "agonist activity only at high concentrations"}, "5HT2C": {"molecular_target": "T3, 5HT2C (Homo sapiens, UniProt P28335)", "T3 sequence (P28335 33-458)": "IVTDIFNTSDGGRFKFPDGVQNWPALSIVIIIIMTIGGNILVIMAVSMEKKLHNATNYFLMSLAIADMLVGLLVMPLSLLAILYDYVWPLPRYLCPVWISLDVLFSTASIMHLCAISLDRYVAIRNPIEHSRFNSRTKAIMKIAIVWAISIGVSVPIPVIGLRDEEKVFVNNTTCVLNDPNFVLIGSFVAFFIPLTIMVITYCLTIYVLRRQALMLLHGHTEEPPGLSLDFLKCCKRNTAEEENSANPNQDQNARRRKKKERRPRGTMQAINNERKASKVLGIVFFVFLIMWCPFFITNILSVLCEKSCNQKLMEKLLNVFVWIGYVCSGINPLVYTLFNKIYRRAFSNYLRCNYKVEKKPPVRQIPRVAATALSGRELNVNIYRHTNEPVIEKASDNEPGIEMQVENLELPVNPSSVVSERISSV", "test": "β-arrestin2 recruitment (Tango)", "conditions": "Fig_S10m; for β-arrestin2 recruitment response in presence of serotonin (replicate values): +10μM serotonin; for β-arrestin2 recruitment response (dose-response source data, replicate values): drug alone"}}, "note": "Where “and” joins values, the source holds several entries; their conditions need not be identical. Equal entries are not always repeated.", "data": [{"smiles": "CCOc1cccc2cc([C@@H](C)NCC3(O)CCCCC3)oc12", "note": "[O4RE6]", "values": [{"measurement": "agonism after serine to glycine substitution", "setting": "DRD2 S1935.42G", "result": "impaired"}, {"measurement": "agonism after serine to glycine substitution", "setting": "DRD2 S1975.46G", "result": "impaired"}, {"measurement": "Fig_S10d concentration-response source data, compound alone (replicates)", "setting": "DRD1; Log[Drug] -6.52", "result": 1.905}, {"measurement": "Fig_S10d concentration-response source data, compound alone (replicates)", "setting": "DRD1; Log[Drug] -7", "result": "1.064 and 2.282 and -0.6391 and 0.289 and -0.08278 and 0.4865 and -0.4054 and 1.577 and 0.01217"}, {"measurement": "Fig_S10d concentration-response source data, compound alone (replicates)", "setting": "DRD1; Log[Drug] -7.52", "result": "1.077 and 0.9051 and -0.1158 and 0.04295 and -0.04452 and 0.1062 and 0.53 and 4.578 and 0.07397"}, {"measurement": "Fig_S10d concentration-response source data, compound alone (replicates)", "setting": "DRD1; Log[Drug] -8", "result": "0.3903 and 0.04289 and 0.7249 and 0.1109 and 0.1132 and -0.0164 and 0.2378 and 0.7481 and 0.5777"}, {"measurement": "Fig_S10d concentration-response source data, compound alone (replicates)", "setting": "DRD1; Log[Drug] -8.52", "result": "1.047 and 2.106 and 1.068 and 0.04686 and -0.2007 and -0.1148 and -0.01592 and 0.004682 and 0.05431"}, {"measurement": "Fig_S10d concentration-response source data, compound alone (replicates)", "setting": "DRD1; Log[Drug] -9", "result": "0.3903 and 1.591 and 1.077 and 0.9231 and 0.04452 and 0.3311 and -0.4785 and 2.978 and 0.1554"}, {"measurement": "Fig_S10d concentration-response source data, compound alone (replicates)", "setting": "DRD1; Log[Drug] -9.52", "result": "0.3689 and -0.1244 and 0.7292 and 0.2936 and 0.3303 and 0.01406 and 0.5824 and 0.412 and 0.617"}, {"measurement": "Fig_S10d concentration-response source data, compound alone (replicates)", "setting": "DRD1; Log[Drug] -10", "result": "7.429 and 0.8836 and 0.03432 and 0.6724 and -0.1109 and 0.4569 and -0.09176 and 0.9157 and -0.1386"}, {"measurement": "Fig_S10d concentration-response source data, compound alone (replicates)", "setting": "DRD1; Log[Drug] -10.52", "result": "-0.3217 and 1.253 and 1.072 and 0.2647 and -0.2624 and -0.04452 and -0.9541 and 0.426 and 0.1283"}, {"measurement": "Fig_S10d concentration-response source data, compound alone (replicates)", "setting": "DRD1; Log[Drug] -11", "result": "0.05147 and 1.072 and 2.964 and 0.7974 and -0.07497 and -0.2936 and -0.2444 and 1.441 and -0.4363"}, {"measurement": "Fig_S10d concentration-response source data, compound alone (replicates)", "setting": "DRD1; Log[Drug] -11.52", "result": "1.244 and 0.2102 and -0.6649 and -0.01562 and -0.1695 and 0.02187 and -0.1648 and 0.6545 and -0.5449"}, {"measurement": "Fig_S10d concentration-response source data, compound alone (replicates)", "setting": "DRD1; Log[Drug] -12", "result": "0.04289 and 4.504 and 6.396 and -0.1351 and 0.3358 and -0.1991 and -0.1554 and -0.2734 and -0.1919"}, {"measurement": "β-arrestin2 recruitment response, agonist mode (normalized)", "setting": "DRD5; Log[Drug] -6.52", "result": 3.307}, {"measurement": "β-arrestin2 recruitment response, agonist mode (normalized)", "setting": "DRD5; Log[Drug] -7", "result": "3.556 and 3.7037 and 0.3329 and 4.539 and 1.619 and 0.7476 and 0.7305 and 1.517 and 0.06412"}, {"measurement": "β-arrestin2 recruitment response, agonist mode (normalized)", "setting": "DRD5; Log[Drug] -7.52", "result": "3.831 and -0.7608 and 1.183 and 2.699 and 1.3394 and 0.2373 and -0.5855 and 0.1756 and 0.6817"}, {"measurement": "β-arrestin2 recruitment response, agonist mode (normalized)", "setting": "DRD5; Log[Drug] -8", "result": "-0.354 and 4.126 and 1.796 and 1.252 and 1.785 and 1.286 and -0.552 and 0.7932 and 1.175"}, {"measurement": "β-arrestin2 recruitment response, agonist mode (normalized)", "setting": "DRD5; Log[Drug] -8.52", "result": "4.945 and 4.734 and 2.002 and 0.8283 and 1.858 and 0.3616 and -0.1241 and 0.7932 and 0.1701"}, {"measurement": "β-arrestin2 recruitment response, agonist mode (normalized)", "setting": "DRD5; Log[Drug] -9", "result": "-0.5336 and 1.162 and 2.8425 and 2.532 and 0.2334 and 1.094 and -1.004 and 0.5702 and 1.069"}, {"measurement": "β-arrestin2 recruitment response, agonist mode (normalized)", "setting": "DRD5; Log[Drug] -9.52", "result": "1.189 and -0.1004 and 3.714 and 0.519 and 0.6511 and 2.841 and 3.8684 and 0.6677 and 1.209"}, {"measurement": "β-arrestin2 recruitment response, agonist mode (normalized)", "setting": "DRD5; Log[Drug] -10", "result": "1.189 and -0.7027 and -2.2032 and 1.378 and 0.875 and 0.4502 and -0.1213 and -0.3875 and 2.24"}, {"measurement": "β-arrestin2 recruitment response, agonist mode (normalized)", "setting": "DRD5; Log[Drug] -10.52", "result": "0.7608 and -0.5125 and 1.416 and 1.597 and 1.308 and 1.974 and 3.531 and 1.161 and 0.5451"}, {"measurement": "β-arrestin2 recruitment response, agonist mode (normalized)", "setting": "DRD5; Log[Drug] -11", "result": "-0.3117 and 1.606 and -1.358 and 0.3916 and 1.977 and 2.8 and -0.009758 and 3.703 and 3.711"}, {"measurement": "β-arrestin2 recruitment response, agonist mode (normalized)", "setting": "DRD5; Log[Drug] -11.52", "result": "-1.77 and 3.926 and 0.7503 and 1.5356 and 0.746 and 0.6788 and -0.4001 and 8.516 and 5.095"}, {"measurement": "β-arrestin2 recruitment response, agonist mode (normalized)", "setting": "DRD5; Log[Drug] -12", "result": "-0.9088 and 2.256 and -1.342 and 2.237 and 0.341 and 1.2057 and -1.023 and 0.1729 and 0.8517"}, {"measurement": "concentration at which the receptor is activated", "setting": "5HT1D", "result": "over 1 μM"}, {"measurement": "β-arrestin2 recruitment response in presence of serotonin (replicate values)", "setting": "5HT2C; Log[Drug] -5", "result": "58.3147 and 46.4286 and 67.806 and 58.4132 and 79.4697 and 68.0017 and 93.0961 and 72.2806 and 97.8926"}, {"measurement": "β-arrestin2 recruitment response (dose-response source data, replicate values)", "setting": "5HT2C; Log[Drug] -5", "result": "0.7157 and -0.5401 and -1.168 and 2.766 and 0.7235 and 1.739 and 11.316 and 1.077 and 3.549"}, {"measurement": "β-arrestin2 recruitment response in presence of serotonin (replicate values)", "setting": "5HT2C; Log[Drug] -5.52", "result": "54.8113 and 63.0121 and 49.2529 and 68.8758 and 64.9488 and 66.315 and 83.0753 and 67.6275 and 72.9664"}, {"measurement": "β-arrestin2 recruitment response (dose-response source data, replicate values)", "setting": "5HT2C; Log[Drug] -5.52", "result": "1.749 and 2.795 and -1.663 and 3.765 and 1.711 and -0.08172 and 1.356 and 7.494 and -2.02"}, {"measurement": "β-arrestin2 recruitment response in presence of serotonin (replicate values)", "setting": "5HT2C; Log[Drug] -6", "result": "55.8065 and 61.1873 and 58.6737 and 61.6241 and 75.6253 and 78.232 and 62.8429 and 85.8382 and 64.0091"}, {"measurement": "β-arrestin2 recruitment response (dose-response source data, replicate values)", "setting": "5HT2C; Log[Drug] -6", "result": "3.06 and -0.5319 and 0.7534 and 2.096 and -0.5619 and -0.6198 and -1.437 and 2.573 and 0.749"}, {"measurement": "β-arrestin2 recruitment response in presence of serotonin (replicate values)", "setting": "5HT2C; Log[Drug] -6.52", "result": "70.8253 and 57.3668 and 57.1998 and 54.2043 and 49.8953 and 65.9707 and 67.8605 and 93.5331 and 78.9014"}]}]}
